Measured values reported in patent US20230085307A1, “PYRIDAZINONE COMPOUND AND HERBICIDE” (NISSAN CHEMICAL CORPORATION, priority 2019, published 2023).

Key:
southern crabgrass = assay: Test Example 5: herbicidal effect by foliage application, plastic box (Table 20, symbol F); format: in vivo, southern crabgrass (Digitaria ciliaris); conditions: foliage application, three weeks after application
In short: (§1)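 Plants were sown into sterilized diluvial soil under about 1.5 cm cover and kept in a greenhouse at 25° C. to 30° C. Fourteen days on, foliage received an even spray of the diluted emulsion. Herbicidal or crop effect was judged three weeks afterwards.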

velvetleaf = assay: Test Example 5: herbicidal effect by foliage application, plastic box (Table 20, symbol M); format: in vivo, velvetleaf (Abutilon theophrasti); conditions: foliage application, three weeks after application
In short: as §1

barnyard grass [1] = assay: Test Example 3: herbicidal effect by foliage application, Wagner pot (Table 18, symbol H); format: in vivo, barnyard grass (Echinochloa crus-galli)
In short: (§2)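 Plants were sown in alluvial soil held under 0.1–0.5 cm standing water and grown 14 days in a greenhouse at 25–30 °C. An emulsifiable formulation, water-diluted to the set dose, was then sprayed onto the foliage, and effects were scored three weeks later using previously defined criteria.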

false cleavers = assay: Test Example 5: herbicidal effect by foliage application, plastic box (Table 20, symbol Q); format: in vivo, false cleavers (Galium spurium); conditions: foliage application, three weeks after application
In short: as §1

green foxtail = assay: Test Example 5: herbicidal effect by foliage application, plastic box (Table 20, symbol G); format: in vivo, green foxtail (Setaria viridis); conditions: foliage application, three weeks after application
In short: as §1

redroot pigweed = assay: Test Example 5: herbicidal effect by foliage application, plastic box (Table 20, symbol N); format: in vivo, redroot pigweed (Amaranthus retroflexus); conditions: foliage application, three weeks after application
In short: as §1

barnyard grass [2] = assay: Test Example 5: herbicidal effect by foliage application, plastic box (Table 20, symbol H); format: in vivo, barnyard grass (Echinochloa crus-galli); conditions: foliage application, three weeks after application
In short: as §1

persian speedwell = assay: Test Example 5: herbicidal effect by foliage application, plastic box (Table 20, symbol R); format: in vivo, Persian speedwell (Veronica persica); conditions: foliage application, three weeks after application
In short: as §1

lambsquarters = assay: Test Example 5: herbicidal effect by foliage application, plastic box (Table 20, symbol O); format: in vivo, lambsquarters (Chenopodium album); conditions: foliage application, three weeks after application
In short: as §1

windgrass = assay: Test Example 5: herbicidal effect by foliage application, plastic box (Table 20, symbol L); format: in vivo, windgrass (Apera spica-venti); conditions: foliage application, three weeks after application
In short: as §1

Chinese sprangletop = assay: Test Example 3: herbicidal effect by foliage application, Wagner pot (Table 18, symbol D); format: in vivo, chinese sprangletop (Leptochloa chinensis)
In short: as §2

Italian ryegrass = assay: Test Example 5: herbicidal effect by foliage application, plastic box (Table 20, symbol K); format: in vivo, Italian ryegrass (Lolium multiflorum); conditions: foliage application, three weeks after application
In short: as §1

blackgrass = assay: Test Example 5: herbicidal effect by foliage application, plastic box (Table 20, symbol J); format: in vivo, blackgrass (Alopecurus myosuroides); conditions: foliage application, three weeks after application
In short: as §1

rice flat sedge = assay: Test Example 3: herbicidal effect by foliage application, Wagner pot (Table 18, symbol E); format: in vivo, rice flat sedge (Cyperus iria)
In short: as §2

chickweed = assay: Test Example 5: herbicidal effect by foliage application, plastic box (Table 20, symbol P); format: in vivo, common chickweed (Stellaria media); conditions: foliage application, three weeks after application
In short: as §1

wild oat = assay: Test Example 5: herbicidal effect by foliage application, plastic box (Table 20, symbol I); format: in vivo, wild oat (Avena fatua); conditions: foliage application, three weeks after application
In short: as §1

Cc1nn(C)c(=O)c(-c2c(-c3cc4c(cc3Cl)OCCO4)sc3ccccc23)c1O [1-095]
F: southern crabgrass, herbicidal effect (southern crabgrass; AAH 197 g/ha): 0 (Herbicidal rate of 5% or less (almost no effect)) | M: velvetleaf, herbicidal effect (velvetleaf; AAH 197 g/ha): 0 (Herbicidal rate of 5% or less (almost no effect)) | herbicidal effect on H (barnyard grass), rating 0-5 (barnyard grass [1]; 197 g/ha): 4 (Herbicidal rate of 70% or more and less than 90%) | Q: false cleavers, herbicidal effect (false cleavers; AAH 197 g/ha): 3 (Herbicidal rate of 40% or more and less than 70%) | G: green foxtail, herbicidal effect (green foxtail; AAH 197 g/ha): 0 (Herbicidal rate of 5% or less (almost no effect)) | N: redroot pigweed, herbicidal effect (redroot pigweed; AAH 197 g/ha): 0 (Herbicidal rate of 5% or less (almost no effect)) | H: barnyard grass, herbicidal effect (barnyard grass [2]; AAH 197 g/ha): 0 (Herbicidal rate of 5% or less (almost no effect)) | R: persian speedwell, herbicidal effect (persian speedwell; AAH 197 g/ha): 4 (Herbicidal rate of 70% or more and less than 90%) | O: lambsquarters, herbicidal effect (lambsquarters; AAH 197 g/ha): 0 (Herbicidal rate of 5% or less (almost no effect)) | L: windgrass, herbicidal effect (windgrass; AAH 197 g/ha): 0 (Herbicidal rate of 5% or less (almost no effect)) | herbicidal effect on D (Chinese sprangletop), rating 0-5 (Chinese sprangletop; 197 g/ha): 0 (Herbicidal rate of 5% or less (almost no effect)) | K: Italian ryegrass, herbicidal effect (Italian ryegrass; AAH 197 g/ha): 0 (Herbicidal rate of 5% or less (almost no effect)) | J: blackgrass, herbicidal effect (blackgrass; AAH 197 g/ha): 0 (Herbicidal rate of 5% or less (almost no effect)) | herbicidal effect on E (rice flat sedge), rating 0-5 (rice flat sedge; 197 g/ha): 1 (Herbicidal rate of 5% or more and less than 20%) | P: chickweed, herbicidal effect (chickweed; AAH 197 g/ha): 3 (Herbicidal rate of 40% or more and less than 70%) | I: wild oat, herbicidal effect (wild oat; AAH 197 g/ha): 0 (Herbicidal rate of 5% or less (almost no effect))

Cc1nn(C)c(=O)c(-c2c(-c3ccc(Oc4ccccc4)cc3)sc3ccccc23)c1O [1-149]
F: southern crabgrass, herbicidal effect (southern crabgrass; AAH 320 g/ha): 3 (Herbicidal rate of 40% or more and less than 70%) | M: velvetleaf, herbicidal effect (velvetleaf; AAH 320 g/ha): 2 (Herbicidal rate of 20% or more and less than 40%) | herbicidal effect on H (barnyard grass), rating 0-5 (barnyard grass [1]; 320 g/ha): 3 (Herbicidal rate of 40% or more and less than 70%) | Q: false cleavers, herbicidal effect (false cleavers; AAH 320 g/ha): 5 (Herbicidal rate of 90% or more (almost completely withered)) | G: green foxtail, herbicidal effect (green foxtail; AAH 320 g/ha): 4 (Herbicidal rate of 70% or more and less than 90%) | N: redroot pigweed, herbicidal effect (redroot pigweed; AAH 320 g/ha): 5 (Herbicidal rate of 90% or more (almost completely withered)) | H: barnyard grass, herbicidal effect (barnyard grass [2]; AAH 320 g/ha): 3 (Herbicidal rate of 40% or more and less than 70%) | R: persian speedwell, herbicidal effect (persian speedwell; AAH 320 g/ha): 5 (Herbicidal rate of 90% or more (almost completely withered)) | O: lambsquarters, herbicidal effect (lambsquarters; AAH 320 g/ha): 4 (Herbicidal rate of 70% or more and less than 90%) | L: windgrass, herbicidal effect (windgrass; AAH 320 g/ha): 0 (Herbicidal rate of 5% or less (almost no effect)) | herbicidal effect on D (Chinese sprangletop), rating 0-5 (Chinese sprangletop; 320 g/ha): 3 (Herbicidal rate of 40% or more and less than 70%) | K: Italian ryegrass, herbicidal effect (Italian ryegrass; AAH 320 g/ha): 0 (Herbicidal rate of 5% or less (almost no effect)) | J: blackgrass, herbicidal effect (blackgrass; AAH 320 g/ha): 0 (Herbicidal rate of 5% or less (almost no effect)) | herbicidal effect on E (rice flat sedge), rating 0-5 (rice flat sedge; 320 g/ha): 5 (Herbicidal rate of 90% or more (almost completely withered)) | P: chickweed, herbicidal effect (chickweed; AAH 320 g/ha): 3 (Herbicidal rate of 40% or more and less than 70%) | I: wild oat, herbicidal effect (wild oat; AAH 320 g/ha): 0 (Herbicidal rate of 5% or less (almost no effect))
